Values quoted from earlier work in PubChem BioAssay AID1259409 (Chemical Carcinogenesis Research Information System (CCRIS), 2018).
*1 amine or outer side, *2 acyl side, *3 side chain or, on linkers, in order; H or OH if unused. Where a SMILES comes first, the peptide text is derived from it. [ ]: non-standard residue; d: D form. X1 = O=C(C(N[*:1])c1ccc(OS(=O)(=O)O)cc1)[*:2]

Test system: rodent chemically induced tumor inhibition, incidence and multiplicity
Test: CCRIS tumor inhibitor studies
Conditions: Carcinogen: N-NITROSOBIS(2-OXOPROPYL)AMINE, 60599-38-4, Route [Inhibitor]: SUBCUTANEOUS, Species: HAMSTER, Strain/Sex: SYRIAN/MALE, FEMALE, Promoter: NONE USED

CCC(C)C(NC(=O)C(CCCNC(=N)N)NC(=O)C(Cc1c[nH]cn1)NC(=O)C(CO)NC(=O)C1CCCN1C(=O)C(CC(=O)O)NC(=O)C(CC(C)C)NC(=O)C(CC(N)=O)NC(=O)C(CCC(N)=O)NC(=O)C(CC(C)C)NC(=O)C(CC(N)=O)NC(=O)C(CCCCN)NC(=O)C(NC(=O)C(NC(=O)C(CO)NC(=O)C(CCSC)NC(=O)C(CCCNC(=N)N)NC(=O)CNC(=O)C(CO)NC(=O)C1CCCN1C(=O)C(C)NC(=O)C(N)CCCCN)C(C)CC)C(C)C)C(=O)NC(CO)C(=O)NC(CC(=O)O)C(=O)NC(CCCNC(=N)N)C(=O)NC(CC(=O)O)C(=O)NC(C(=O)NC(CCSC)C(=O)NCC(=O)NC(Cc1c[nH]c2ccccc12)C(=O)NC(CCSC)C(=O)NC(CC(=O)O)C(=O)NC(Cc1ccccc1)C(N)=O)c1ccc(OS(=O)(=O)O)cc1 (stereo not given) (H-KAPSGRMSIVKNLQNLDPSHRISDRD[X1]MGWMDF-NH2; configuration not given here)
tumour outcome (control, treated, inhibition, significance) (Dose [Inhibitor]: 20 IDU/KG BW 6/D FOR 15 WK FIRST DOSE GIVEN 3 HR POST CARCINOGEN DOSE (STUDY DURATION: 46 WK), Target Tissue: Type of Lesion: PANCREAS: DUCTAL/DUCTULAR CARCINOMA, Dose [Carcinogen]: 20 MG/KG BW IN PHYSIOLOGICAL SALINE ONCE): 21/40 (52%), 10/37 (27%), 48%, p<0.05 | tumour outcome (control, treated, inhibition, significance) (Dose [Inhibitor]: 20 IDU/KG BW 6/D FOR 15 WK FIRST DOSE GIVEN 3 HR POST CARCINOGEN DOSE (STUDY DURATION: 46 WK), Target Tissue: Type of Lesion: PANCREAS: DUCTULAR ADENOMA, Dose [Carcinogen]: 20 MG/KG BW IN PHYSIOLOGICAL SALINE ONCE): 31/40 (78%), 22/37 (59%), 24%, not calculated | tumour outcome (control, treated, inhibition, significance) (Dose [Inhibitor]: 20 IDU/KG BW 6/D FOR 15 WK FIRST DOSE GIVEN 3 HR POST CARCINOGEN DOSE (STUDY DURATION: 46 WK), Target Tissue: Type of Lesion: PANCREAS: DUCTULAR PROLIFERATION, Dose [Carcinogen]: 20 MG/KG BW IN PHYSIOLOGICAL SALINE ONCE): 37/40 (92%), 35/37 (95%), -3%, not calculated | tumour outcome (control, treated, inhibition, significance) (Dose [Inhibitor]: 20 IDU/KG BW INJECTED AT 30 MIN INTERVALS FOR 6 DOSES, FIRST DOSE GIVEN 3 HR POST CARCINOGEN DOSE (STUDY DURATION: 46 WK, Target Tissue: Type of Lesion: PANCREAS: DUCTAL/DUCTULAR CARCINOMA, Dose [Carcinogen]: 20 MG/KG BW IN PHYSIOLOGICAL SALINE ONCE): 21/40 (52%), 17/39 (44%), 15%, not calculated | tumour outcome (control, treated, inhibition, significance) (Dose [Inhibitor]: 20 IDU/KG BW INJECTED AT 30 MIN INTERVALS FOR 6 DOSES, FIRST DOSE GIVEN 3 HR POST CARCINOGEN DOSE (STUDY DURATION: 46 WK, Target Tissue: Type of Lesion: PANCREAS: DUCTULAR PROLIFERATION, Dose [Carcinogen]: 20 MG/KG BW IN PHYSIOLOGICAL SALINE ONCE): 37/40 (92%), 37/39 (95%), -3%, not calculated | tumour outcome (control, treated, inhibition, significance) (Dose [Inhibitor]: 20 IDU/KG BW INJECTED AT 30 MIN INTERVALS FOR 6 DOSES, FIRST DOSE GIVEN 3 HR POST EACH CARCINOGEN DOSE (STUDY DURATION:, Target Tissue: Type of Lesion: PANCREAS: DUCTAL ADENOMA, Dose [Carcinogen]: 2.5 MG/KG BW IN PHYSIOLOGICAL SALINE 1/WK FOR 20 WK): 17/25 (68%), 20/25 (80%), -18%, not calculated | tumour outcome (control, treated, inhibition, significance) (Dose [Inhibitor]: 20 IDU/KG BW INJECTED AT 30 MIN INTERVALS FOR 6 DOSES, FIRST DOSE GIVEN 3 HR POST EACH CARCINOGEN DOSE (STUDY DURATION:, Target Tissue: Type of Lesion: PANCREAS: DUCTAL PROLIFERATION, Dose [Carcinogen]: 2.5 MG/KG BW IN PHYSIOLOGICAL SALINE 1/WK FOR 20 WK): 22/25 (88%), 23/25 (92%), -5%, not calculated | tumour outcome (control, treated, inhibition, significance) (Dose [Inhibitor]: 20 IDU/KG BW INJECTED AT 30 MIN INTERVALS FOR 6 DOSES, FIRST DOSE GIVEN 3 HR POST EACH CARCINOGEN DOSE (STUDY DURATION:, Target Tissue: Type of Lesion: PANCREAS: DUCTAL/DUCTULAR CARCINOMA, Dose [Carcinogen]: 2.5 MG/KG BW IN PHYSIOLOGICAL SALINE 1/WK FOR 20 WK): 15/25 (60%), 23/25 (92%), -53%, not calculated | tumour outcome (control, treated, inhibition, significance) (Dose [Inhibitor]: 20 IDU/KG BW INJECTED AT 30 MIN INTERVALS FOR 6 DOSES, FIRST DOSE GIVEN SIMULTANEOUSLY WITH CARCINOGEN DOSE (STUDY DURAT, Target Tissue: Type of Lesion: PANCREAS: DUCTAL/DUCTULAR CARCINOMA, Dose [Carcinogen]: 20 MG/KG BW IN PHYSIOLOGICAL SALINE ONCE): 21/40 (52%), 5/39 (13%), 75%, p<0.001 | tumour outcome (control, treated, inhibition, significance) (Dose [Inhibitor]: 20 IDU/KG BW INJECTED AT 30 MIN INTERVALS FOR 6 DOSES, FIRST DOSE GIVEN SIMULTANEOUSLY WITH CARCINOGEN DOSE (STUDY DURAT, Target Tissue: Type of Lesion: PANCREAS: DUCTULAR ADENOMA, Dose [Carcinogen]: 20 MG/KG BW IN PHYSIOLOGICAL SALINE ONCE): 31/40 (78%), 23/39 (59%), 24%, not calculated | tumour outcome (control, treated, inhibition, significance) (Dose [Inhibitor]: 20 IDU/KG BW INJECTED AT 30 MIN INTERVALS FOR 6 DOSES, FIRST DOSE GIVEN SIMULTANEOUSLY WITH CARCINOGEN DOSE (STUDY DURAT, Target Tissue: Type of Lesion: PANCREAS: DUCTULAR PROLIFERATION, Dose [Carcinogen]: 20 MG/KG BW IN PHYSIOLOGICAL SALINE ONCE): 37/40 (92%), 35/39 (90%), 2%, not calculated | tumour outcome (control, treated, inhibition, significance) (Dose [Inhibitor]: 20 IDU/KG BW INJECTED AT 30 MIN INTERVALS FOR 6 DOSES, FIRST DOSE GIVEN SIMULTANEOUSLY WITH EACH CARCINOGEN DOSE (STUDY, Target Tissue: Type of Lesion: PANCREAS: DUCTAL ADENOMA, Dose [Carcinogen]: 2.5 MG/KG BW IN PHYSIOLOGICAL SALINE 1/WK FOR 20 WK): 17/25 (68%), 21/24 (88%), -29%, not calculated | tumour outcome (control, treated, inhibition, significance) (Dose [Inhibitor]: 20 IDU/KG BW INJECTED AT 30 MIN INTERVALS FOR 6 DOSES, FIRST DOSE GIVEN SIMULTANEOUSLY WITH EACH CARCINOGEN DOSE (STUDY, Target Tissue: Type of Lesion: PANCREAS: DUCTAL PROLIFERATION, Dose [Carcinogen]: 2.5 MG/KG BW IN PHYSIOLOGICAL SALINE 1/WK FOR 20 WK): 22/25 (88%), 22/24 (92%), -5%, not calculated | tumour outcome (control, treated, inhibition, significance) (Dose [Inhibitor]: 20 IDU/KG BW INJECTED AT 30 MIN INTERVALS FOR 6 DOSES, FIRST DOSE GIVEN SIMULTANEOUSLY WITH EACH CARCINOGEN DOSE (STUDY, Target Tissue: Type of Lesion: PANCREAS: DUCTAL/DUCTULAR CARCINOMA, Dose [Carcinogen]: 2.5 MG/KG BW IN PHYSIOLOGICAL SALINE 1/WK FOR 20 WK): 15/25 (60%), 18/24 (75%), -25%, not calculated | tumour outcome (control, treated, inhibition, significance) (Dose [Inhibitor]: 20 IDU/KG BW INJECTED AT 30 MIN INTERVALS FOR 6 DOSES, LAST DOSE 3 HR PRIOR TO CARCINOGEN DOSE (STUDY DURATION: 46 WK), Target Tissue: Type of Lesion: PANCREAS: DUCTAL/DUCTULAR CARCINOMA, Dose [Carcinogen]: 20 MG/KG BW IN PHYSIOLOGICAL SALINE ONCE): 21/40 (52%), 8/37 (22%), 58%, p<0.025 | tumour outcome (control, treated, inhibition, significance) (Dose [Inhibitor]: 20 IDU/KG BW INJECTED AT 30 MIN INTERVALS FOR 6 DOSES, LAST DOSE 3 HR PRIOR TO CARCINOGEN DOSE (STUDY DURATION: 46 WK), Target Tissue: Type of Lesion: PANCREAS: DUCTULAR ADENOMA, Dose [Carcinogen]: 20 MG/KG BW IN PHYSIOLOGICAL SALINE ONCE): 31/40 (78%), 19/37 (51%), 35%, not calculated | tumour outcome (control, treated, inhibition, significance) (Dose [Inhibitor]: 20 IDU/KG BW INJECTED AT 30 MIN INTERVALS FOR 6 DOSES, LAST DOSE 3 HR PRIOR TO CARCINOGEN DOSE (STUDY DURATION: 46 WK), Target Tissue: Type of Lesion: PANCREAS: DUCTULAR PROLIFERATION, Dose [Carcinogen]: 20 MG/KG BW IN PHYSIOLOGICAL SALINE ONCE): 37/40 (92%), 33/37 (89%), 3%, not calculated | tumour outcome (control, treated, inhibition, significance) (Dose [Inhibitor]: 20 IDU/KG BW INJECTED AT 30 MIN INTERVALS FOR 6 DOSES, LAST DOSE GIVEN 3 HR PRIOR TO EACH CARCINOGEN DOSE (STUDY DURATIO, Target Tissue: Type of Lesion: PANCREAS: DUCTAL ADENOMA, Dose [Carcinogen]: 2.5 MG/KG BW IN PHYSIOLOGICAL SALINE 1/WK FOR 20 WK): 17/25 (68%), 25/29 (89%), -31%, not calculated | tumour outcome (control, treated, inhibition, significance) (Dose [Inhibitor]: 20 IDU/KG BW INJECTED AT 30 MIN INTERVALS FOR 6 DOSES, LAST DOSE GIVEN 3 HR PRIOR TO EACH CARCINOGEN DOSE (STUDY DURATIO, Target Tissue: Type of Lesion: PANCREAS: DUCTAL PROLIFERATION, Dose [Carcinogen]: 2.5 MG/KG BW IN PHYSIOLOGICAL SALINE 1/WK FOR 20 WK): 22/25 (88%), 24/29 (86%), 2%, not calculated | tumour outcome (control, treated, inhibition, significance) (Dose [Inhibitor]: 20 IDU/KG BW INJECTED AT 30 MIN INTERVALS FOR 6 DOSES, LAST DOSE GIVEN 3 HR PRIOR TO EACH CARCINOGEN DOSE (STUDY DURATIO, Target Tissue: Type of Lesion: PANCREAS: DUCTAL/DUCTULAR CARCINOMA, Dose [Carcinogen]: 2.5 MG/KG BW IN PHYSIOLOGICAL SALINE 1/WK FOR 20 WK): 15/25 (60%), 23/29 (82%), -37%, not calculated
